# Measured values taken from US20140084216A1 (Merck Patent GmbH, priority 2011, published 2014).
smiles,measurement,value
"C=CC(=O)OCCN(CCOC(=O)C=C)c1ccc(N=Nc2snc(C)c2C#N)c(NC(C)=O)c1 [Example 5, Acrylic acid 2-[{3-acetylamino-4-(4-cyano-3-methylisothiazol-5-ylazo)-phenyl}-{2-acryloyloxyethyl}-amino]-ethyl ester]",melting point,92 to 94 °C
